Experimental data published in article PMC5971468, “Small molecules that inhibit the late stage of Munc13-4–dependent secretory granule exocytosis in mast cells” (The Journal of Biological Chemistry, 2018).

Columns and labels:
[1] = biological target: T1, Munc13-4 (Homo sapiens, UniProt Q70J99); assay: SNARE-dependent liposome lipid-mixing FRET assay with purified Munc13-4 + Ca2+; type: biochemical
T1 construct: gene UNC13D; His6-tagged human Munc13-4 protein produced in insect Sf9 cells

[2] = biological target: T1, Munc13-4; assay: SNARE-dependent liposome lipid-mixing FRET assay with purified Munc13-4 + Ca2+; liposome flotation binding assay; type: biochemical

T1 sequence (Q70J99 whole entry): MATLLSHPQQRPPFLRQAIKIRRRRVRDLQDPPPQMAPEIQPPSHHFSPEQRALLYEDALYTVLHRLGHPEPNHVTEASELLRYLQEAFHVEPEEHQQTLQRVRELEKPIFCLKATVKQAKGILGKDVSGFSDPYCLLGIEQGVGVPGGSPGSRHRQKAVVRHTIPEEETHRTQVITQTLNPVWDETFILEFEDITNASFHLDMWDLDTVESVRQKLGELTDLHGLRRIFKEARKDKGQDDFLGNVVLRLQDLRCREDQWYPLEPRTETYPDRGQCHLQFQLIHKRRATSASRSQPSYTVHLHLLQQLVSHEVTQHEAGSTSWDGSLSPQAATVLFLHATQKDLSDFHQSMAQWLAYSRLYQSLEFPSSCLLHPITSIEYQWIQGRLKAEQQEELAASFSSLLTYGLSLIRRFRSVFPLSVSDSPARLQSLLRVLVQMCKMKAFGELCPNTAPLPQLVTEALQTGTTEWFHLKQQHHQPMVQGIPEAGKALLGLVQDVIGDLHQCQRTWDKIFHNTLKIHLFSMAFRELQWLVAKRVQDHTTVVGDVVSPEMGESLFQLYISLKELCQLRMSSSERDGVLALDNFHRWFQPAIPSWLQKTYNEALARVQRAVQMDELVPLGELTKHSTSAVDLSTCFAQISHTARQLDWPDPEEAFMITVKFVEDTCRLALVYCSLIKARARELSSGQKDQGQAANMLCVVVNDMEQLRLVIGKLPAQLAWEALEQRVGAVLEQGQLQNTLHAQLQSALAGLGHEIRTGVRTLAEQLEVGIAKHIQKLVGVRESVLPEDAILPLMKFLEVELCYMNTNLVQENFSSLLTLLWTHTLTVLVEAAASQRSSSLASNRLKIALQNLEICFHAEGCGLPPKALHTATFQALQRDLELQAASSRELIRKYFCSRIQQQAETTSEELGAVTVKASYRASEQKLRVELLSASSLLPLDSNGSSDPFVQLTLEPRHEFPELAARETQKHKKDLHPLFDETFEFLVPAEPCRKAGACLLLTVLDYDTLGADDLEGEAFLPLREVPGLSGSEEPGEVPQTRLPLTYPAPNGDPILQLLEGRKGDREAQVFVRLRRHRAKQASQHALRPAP
T1 sequence (P32851 whole entry partner): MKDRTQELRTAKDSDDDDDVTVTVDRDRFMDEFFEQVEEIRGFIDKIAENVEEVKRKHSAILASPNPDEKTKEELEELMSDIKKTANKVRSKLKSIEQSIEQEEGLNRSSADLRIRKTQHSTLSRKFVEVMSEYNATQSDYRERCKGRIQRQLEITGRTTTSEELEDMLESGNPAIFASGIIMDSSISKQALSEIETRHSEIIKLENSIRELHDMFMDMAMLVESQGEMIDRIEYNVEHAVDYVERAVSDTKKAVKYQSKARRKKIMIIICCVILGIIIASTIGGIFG
T1 sequence (P60879 whole entry partner): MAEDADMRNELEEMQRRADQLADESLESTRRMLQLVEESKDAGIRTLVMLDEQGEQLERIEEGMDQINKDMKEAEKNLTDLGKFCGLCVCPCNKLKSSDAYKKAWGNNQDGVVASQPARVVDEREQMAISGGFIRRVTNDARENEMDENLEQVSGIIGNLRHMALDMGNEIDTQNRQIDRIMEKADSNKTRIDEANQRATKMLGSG
T1 sequence (P63044 2-116 partner): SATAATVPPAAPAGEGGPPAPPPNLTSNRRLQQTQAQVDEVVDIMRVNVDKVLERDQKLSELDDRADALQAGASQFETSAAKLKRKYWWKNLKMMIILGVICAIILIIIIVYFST

Row | IC50 [1] [µM] | IC50 [2] [µM] | SMILES
1 | ~5 |  | COc1ccc2sc(N(CCCN(C)C)C(=O)c3ccc(S(=O)(=O)N4CCCc5ccccc54)cc3)nc2c1 [bexin-3]
2 |  | ~5 | CCn1nc(C(=O)N(CCCN(C)C)c2nc3c(C)ccc(Cl)c3s2)cc1C [bexin-1]
